Assay results: patent US20260193293A1, “PEPTIDES CAPABLE OF INHIBITING PROTEIN-PROTEIN INTERACTIONS AT GABAB1A SUBUNIT AND USES THEREOF” (UNIVERSITY OF COPENHAGEN, priority 2022, published 2026)
Read-outs that look alike come from different tables or passages of the source. One block for each compound: values may come before it. Non-standard residues stand in square brackets, D forms with d. Residues, ends and D or L forms follow the SMILES beside them. 1Nal = N[C@@H](Cc1cccc2ccccc12)C(=O)O; Sar = CNCC(=O)O

Target: Sushi domains (SD1/2) protein
Experiment: Fluorescence polarization (FP) competition assay with AJAP-1probe, calculated Ki
Assay type: binding
In short: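 Competition against 25 nM TAMRA-labelled peptide probe binding SD1/2, in PBS pH 7.4 with 1% BSA at rt, read at 530/580 nm. IC50 from sigmoidal dose-response fits, at least triplicate; Ki calculated from IC50 using probe Kd from saturation binding.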

[1] = Table 14, CPPs tagged peptides, read-out: Ki (nM) mean ± SEM
[2] = Table 5, elongation and truncation scan of AJAP-1 binding epitope, read-out: Ki (nM) mean ± SEM
[3] = Table 8, in μM, read-out: Ki (nM) mean ± SEM
[4] = Table 11, deep mutational scanning validation variants of AJAP-1WT, read-out: Ki (nM) mean ± SEM
[5] = Table 12, deep mutational scanning validation variants of PIANPWT, read-out: Ki (nM) mean ± SEM

- Ki [1]: 89.1 ± 3 nM
Structure (SMILES): CC[C@H](C)[C@H](NC(=O)[C@H](Cc1c[nH]c2ccccc12)NC(=O)[C@H](CC(=O)O)NC(=O)[C@H](CC(=O)O)NC(=O)[C@H](CC(=O)O)NC(=O)[C@H](CCC(=O)O)NC(=O)[C@H](CCCNC(=N)N)NC(=O)[C@H](CCCNC(=N)N)NC(=O)[C@H](CCCNC(=N)N)NC(=O)[C@H](CCCNC(=N)N)NC(=O)[C@H](CCCNC(=N)N)NC(=O)[C@H](CCCNC(=N)N)NC(=O)[C@H](CCCNC(=N)N)NC(C)=O)C(=O)N[C@@H](CC(=O)O)C(=O)N[C@@H](Cc1c[nH]c2ccccc12)C(=O)N[C@@H](Cc1ccc(O)cc1)C(=O)N[C@@H](CC(=O)O)C(=O)N[C@@H](CO)C(=O)N[C@@H](CC(=O)O)C(=O)N[C@@H](CC(=O)O)C(=O)N[C@@H](CC(=O)O)C(N)=O (Ac-RRRRRRREDDDWIDWYDSDDD-NH2)

- Ki [2]: 112 ± 1 nM
Structure (SMILES): CC[C@H](C)[C@H](NC(=O)[C@H](Cc1ccccc1)NC(=O)[C@H](CCC(=O)O)NC(C)=O)C(=O)N[C@@H](C)C(=O)N[C@@H](Cc1c[nH]c2ccccc12)C(=O)NCC(=O)N1CCC[C@H]1C(=O)N[C@H](C(=O)NCC(=O)N[C@@H](CC(=O)O)C(=O)N[C@@H](CCC(=O)O)C(=O)N[C@@H](CC(=O)O)C(N)=O)[C@@H](C)O [EFIAWGPTGDED] (Ac-EFIAWGPTGDED-NH2)

- Ki (Table 4, truncation and elongation scans of APP epitope, read-out: Ki (nM) mean ± SEM): 585 ± 10 nM
Structure (SMILES): CC(=O)N[C@@H](CCC(=O)O)C(=O)N[C@@H](CCC(=O)O)C(=O)N[C@@H](CC(=O)O)C(=O)N[C@@H](CC(=O)O)C(=O)N[C@@H](CO)C(=O)N[C@@H](CC(=O)O)C(=O)N[C@H](C(=O)N[C@@H](Cc1c[nH]c2ccccc12)C(=O)N[C@@H](Cc1c[nH]c2ccccc12)C(=O)NCC(=O)NCC(=O)N[C@@H](C)C(=O)N[C@@H](CC(=O)O)C(=O)N[C@H](C(N)=O)[C@@H](C)O)C(C)C (Ac-EEDDSDVWWGGADT-NH2)

- Ki (Table 6, elongation and truncation scan of PIANP binding epitope, read-out: Ki (nM) mean ± SEM): 762 ± 13 nM
Structure (SMILES): CC[C@H](C)[C@H](NC(=O)[C@H](C)NC(=O)[C@H](Cc1c[nH]c2ccccc12)NC(=O)[C@@H]1CCCN1C(=O)[C@H](Cc1ccc(O)cc1)NC(=O)[C@H](CCC(N)=O)NC(=O)[C@H](CO)NC(C)=O)C(=O)N[C@H](C(=O)N[C@@H](Cc1c[nH]c2ccccc12)C(=O)NCC(=O)N1CCC[C@H]1C(=O)N[C@H](C(=O)N[C@H](C(=O)N[C@@H](CO)C(=O)N[C@@H](CCCNC(=N)N)C(=O)N[C@@H](CCC(=O)O)C(=O)N[C@@H](CC(=O)O)C(=O)NCC(N)=O)C(C)C)[C@@H](C)O)C(C)C (Ac-SQYPWAIVWGPTVSREDG-NH2)

- Ki [3]: > 6250 nM
Structure (SMILES): CC[C@H](C)[C@H](NC(=O)[C@H](Cc1ccccc1)NC(=O)[C@H](CCC(=O)O)NC(=O)[C@@H](NC(=O)[C@H](CCC(=O)O)NC(C)=O)[C@@H](C)O)C(=O)N[C@@H](C)C(=O)N[C@@H](C)C(=O)NCC(=O)N1CCC[C@H]1C(=O)N[C@H](C(=O)NCC(=O)N[C@@H](CC(=O)O)C(=O)N[C@@H](CCC(=O)O)C(=O)N[C@@H](CC(=O)O)C(N)=O)[C@@H](C)O [ETEFIAAGPTGDED] (Ac-ETEFIAAGPTGDED-NH2)

- Ki (Table 1, affinity maturation, mean ± SEM, n ≥ 3, read-out: Ki): 354 ± 9 nM
- Ki (Table 13, peptides for affinity maturation, read-out: Ki (nM) mean ± SEM): 345 ± 9 nM
Structure (SMILES): CC[C@H](C)[C@H](NC(=O)[C@H](Cc1ccccc1)NC(=O)[C@H](CCC(=O)O)NC(=O)[C@@H](NC(=O)[C@H](CCC(=O)O)NC(C)=O)[C@@H](C)O)C(=O)N[C@@H](C)C(=O)N[C@@H](Cc1c[nH]c2ccccc12)C(=O)NCC(=O)NCC(=O)N[C@@H](C)C(=O)N[C@@H](CC(=O)O)C(=O)N[C@H](C(=O)N[C@@H](CC(=O)O)C(N)=O)[C@@H](C)O [Peptide Y] (Ac-ETEFIAWGGADTD-NH2)

- Ki [4]: 9 ± 1 nM
- Ki (purified peptides, read-out: Ki): 9 nM
- fold improved affinity relative to the wild type (relative to AJAP-1WT): 3 fold
- Ki (unit inferred, read-out: Ki): 9 nM
Structure (SMILES): CC[C@H](C)[C@H](NC(=O)[C@H](Cc1ccccc1)NC(=O)[C@H](CCC(=O)O)NC(=O)[C@@H](NC(=O)[C@H](CCC(=O)O)NC(C)=O)[C@@H](C)O)C(=O)N[C@@H](CC(=O)O)C(=O)N[C@@H](Cc1c[nH]c2ccccc12)C(=O)NCC(=O)N1CCC[C@H]1C(=O)N[C@H](C(=O)NCC(=O)N[C@@H](CC(=O)O)C(=O)N[C@@H](CCC(=O)O)C(=O)N[C@@H](CC(=O)O)C(N)=O)[C@@H](C)O [Peptide 26, Ac-ETEFIDWGPTGDED-NH2] (Ac-ETEFIDWGPTGDED-NH2)

- Ki (Table 16, ncAAs incorporated peptides, read-out: Ki (nM) mean ± SEM): 69 ± 3 nM
Structure (SMILES): CC(=O)N[C@@H](CCC(=O)O)C(=O)N[C@@H](CC(=O)O)C(=O)N[C@@H](CC(=O)O)C(=O)N[C@@H](CO)C(=O)N[C@@H](Cc1cccc2ccccc12)C(=O)N[C@H](C(=O)N[C@@H](Cc1c[nH]c2ccccc12)C(=O)N[C@@H](Cc1c[nH]c2ccccc12)C(=O)NCC(=O)NCC(=O)N[C@@H](C)C(=O)N[C@@H](CC(=O)O)C(=O)N[C@H](C(=O)N[C@@H](CC(=O)O)C(N)=O)[C@@H](C)O)C(C)C (Ac-EDDS[1Nal]VWWGGADTD-NH2)

- Ki (Table 7, Ala-, D-amino acids and N-methylation scans of APPWT, read-out: Ki (nM) mean ± SEM): 660 ± 21 nM
Structure (SMILES): CC(=O)N[C@@H](CCC(=O)O)C(=O)N[C@@H](CC(=O)O)C(=O)N[C@@H](CC(=O)O)C(=O)N[C@@H](C)C(=O)N[C@@H](CC(=O)O)C(=O)N[C@H](C(=O)N[C@@H](Cc1c[nH]c2ccccc12)C(=O)N[C@@H](Cc1c[nH]c2ccccc12)C(=O)NCC(=O)NCC(=O)N[C@@H](C)C(=O)N[C@@H](CC(=O)O)C(=O)N[C@H](C(=O)N[C@@H](CC(=O)O)C(N)=O)[C@@H](C)O)C(C)C (Ac-EDDADVWWGGADTD-NH2)

- Ki [3]: > 6250 nM
Structure (SMILES): CC[C@H](C)[C@H](NC(=O)[C@H](Cc1ccccc1)NC(=O)[C@H](CCC(=O)O)NC(=O)[C@@H](NC(=O)[C@H](CCC(=O)O)NC(C)=O)[C@@H](C)O)C(=O)N[C@@H](C)C(=O)N[C@@H](Cc1c[nH]c2ccccc12)C(=O)N(C)CC(=O)N1CCC[C@H]1C(=O)N[C@H](C(=O)NCC(=O)N[C@@H](CC(=O)O)C(=O)N[C@@H](CCC(=O)O)C(=O)N[C@@H](CC(=O)O)C(N)=O)[C@@H](C)O [ETEFIAW(N-Me-G)PTGDED] (Ac-ETEFIAW[Sar]PTGDED-NH2)

- Ki [5]: 1500 ± 50 nM
Structure (SMILES): CC[C@H](C)[C@H](NC(=O)[C@H](C)NC(=O)[C@H](Cc1c[nH]cn1)NC(=O)[C@@H]1CCCN1C(C)=O)C(=O)N[C@H](C(=O)N[C@@H](Cc1c[nH]c2ccccc12)C(=O)NCC(=O)N1CCC[C@H]1C(=O)N[C@H](C(=O)N[C@H](C(=O)N[C@@H](CO)C(=O)N[C@@H](CCCNC(=N)N)C(=O)N[C@@H](CCC(=O)O)C(=O)N[C@@H](CC(=O)O)C(N)=O)C(C)C)[C@@H](C)O)C(C)C [PHAIVWGPTVSRED] (Ac-PHAIVWGPTVSRED-NH2)

- Ki [4]: 62 ± 3 nM
Structure (SMILES): CC[C@H](C)[C@H](NC(=O)[C@H](Cc1ccccc1)NC(=O)[C@H](CCC(=O)O)NC(=O)[C@@H](NC(=O)[C@H](CC(N)=O)NC(C)=O)[C@@H](C)O)C(=O)N[C@@H](C)C(=O)N[C@@H](Cc1c[nH]c2ccccc12)C(=O)NCC(=O)N1CCC[C@H]1C(=O)N[C@H](C(=O)NCC(=O)N[C@@H](CC(=O)O)C(=O)N[C@@H](CCC(=O)O)C(=O)N[C@@H](CC(=O)O)C(N)=O)[C@@H](C)O [NTEFIAWGPTGDED] (Ac-NTEFIAWGPTGDED-NH2)

- Ki (Table 10, deep mutational scanning validation variants of APPWT, read-out: Ki (nM) mean ± SEM): 255 ± 11 nM
Structure (SMILES): CC(=O)N[C@@H](CCC(=O)O)C(=O)N[C@@H](CC(=O)O)C(=O)N[C@@H](CC(=O)O)C(=O)N[C@@H](CO)C(=O)N[C@@H](CC(=O)O)C(=O)N[C@H](C(=O)N[C@@H](Cc1c[nH]c2ccccc12)C(=O)N[C@@H](Cc1c[nH]c2ccccc12)C(=O)NCC(=O)NCC(=O)N[C@@H](Cc1ccc(O)cc1)C(=O)N[C@@H](CC(=O)O)C(=O)N[C@H](C(=O)N[C@@H](CC(=O)O)C(N)=O)[C@@H](C)O)C(C)C (Ac-EDDSDVWWGGYDTD-NH2)

- Ki [2]: 58 ± 0.4 nM
Structure (SMILES): CC[C@H](C)[C@H](NC(=O)[C@H](Cc1ccccc1)NC(=O)[C@H](CCC(=O)O)NC(=O)[C@@H](NC(=O)[C@H](CCC(=O)O)NC(=O)[C@@H](NC(=O)[C@@H](NC(=O)[C@@H]1CCCN1C(=O)[C@H](CCCNC(=N)N)NC(C)=O)[C@@H](C)O)[C@@H](C)O)[C@@H](C)O)C(=O)N[C@@H](C)C(=O)N[C@@H](Cc1c[nH]c2ccccc12)C(=O)NCC(=O)N1CCC[C@H]1C(=O)N[C@H](C(=O)NCC(=O)N[C@@H](CC(=O)O)C(=O)N[C@@H](CCC(=O)O)C(=O)N[C@@H](CC(=O)O)C(N)=O)[C@@H](C)O

- Ki [2]: 36 ± 1.7 nM
Structure (SMILES): CC[C@H](C)[C@H](NC(=O)[C@H](Cc1ccccc1)NC(=O)[C@H](CCC(=O)O)NC(=O)[C@@H](NC(=O)[C@H](CCC(=O)O)NC(=O)[C@@H](NC(C)=O)[C@@H](C)O)[C@@H](C)O)C(=O)N[C@@H](C)C(=O)N[C@@H](Cc1c[nH]c2ccccc12)C(=O)NCC(=O)N1CCC[C@H]1C(=O)N[C@H](C(=O)NCC(=O)N[C@@H](CC(=O)O)C(=O)N[C@@H](CCC(=O)O)C(=O)N[C@@H](CC(=O)O)C(=O)N[C@@H](C)C(N)=O)[C@@H](C)O (Ac-TETEFIAWGPTGDEDA-NH2)

- Ki [5]: 338 ± 1 nM
Structure (SMILES): CC[C@H](C)[C@H](NC(=O)[C@H](C)NC(=O)[C@H](Cc1c[nH]c2ccccc12)NC(=O)[C@H](CC(=O)O)NC(C)=O)C(=O)N[C@H](C(=O)N[C@@H](Cc1c[nH]c2ccccc12)C(=O)NCC(=O)N1CCC[C@H]1C(=O)N[C@H](C(=O)N[C@H](C(=O)N[C@@H](CO)C(=O)N[C@@H](CCCNC(=N)N)C(=O)N[C@@H](CCC(=O)O)C(=O)N[C@@H](CC(=O)O)C(N)=O)C(C)C)[C@@H](C)O)C(C)C [DWAIVWGPTVSRED] (Ac-DWAIVWGPTVSRED-NH2)

- Ki [1]: 39.5 ± 2 nM
Structure (SMILES): CC[C@H](C)[C@H](NC(=O)[C@H](Cc1c[nH]c2ccccc12)NC(=O)[C@H](CC(=O)O)NC(=O)[C@H](CC(=O)O)NC(=O)[C@H](CC(=O)O)NC(=O)[C@H](CCC(=O)O)NC(=O)[C@H](CCCNC(=N)N)NC(=O)[C@H](CCCNC(=N)N)NC(=O)[C@H](CCCNC(=N)N)NC(=O)[C@H](CCCNC(=N)N)NC(=O)[C@H](CCCNC(=N)N)NC(C)=O)C(=O)N[C@@H](CC(=O)O)C(=O)N[C@@H](Cc1c[nH]c2ccccc12)C(=O)N[C@@H](Cc1ccc(O)cc1)C(=O)N[C@@H](CC(=O)O)C(=O)N[C@@H](CO)C(=O)N[C@@H](CC(=O)O)C(=O)N[C@@H](CC(=O)O)C(=O)N[C@@H](CC(=O)O)C(N)=O (Ac-RRRRREDDDWIDWYDSDDD-NH2)
